This is an account of results in patent publication US9938299B2, “Glycosidase inhibitors and uses thereof” (MERCK SHARP & DOHME CORP., priority 2012, dated 2018).

As usually defined, the Ki is a measure of affinity in units of concentration, obtained from inhibition or displacement.

The assay concerns the target T1, human O-GlcNAcase (Homo sapiens, UniProt O60502).
T1 sequence (O60502 1-916): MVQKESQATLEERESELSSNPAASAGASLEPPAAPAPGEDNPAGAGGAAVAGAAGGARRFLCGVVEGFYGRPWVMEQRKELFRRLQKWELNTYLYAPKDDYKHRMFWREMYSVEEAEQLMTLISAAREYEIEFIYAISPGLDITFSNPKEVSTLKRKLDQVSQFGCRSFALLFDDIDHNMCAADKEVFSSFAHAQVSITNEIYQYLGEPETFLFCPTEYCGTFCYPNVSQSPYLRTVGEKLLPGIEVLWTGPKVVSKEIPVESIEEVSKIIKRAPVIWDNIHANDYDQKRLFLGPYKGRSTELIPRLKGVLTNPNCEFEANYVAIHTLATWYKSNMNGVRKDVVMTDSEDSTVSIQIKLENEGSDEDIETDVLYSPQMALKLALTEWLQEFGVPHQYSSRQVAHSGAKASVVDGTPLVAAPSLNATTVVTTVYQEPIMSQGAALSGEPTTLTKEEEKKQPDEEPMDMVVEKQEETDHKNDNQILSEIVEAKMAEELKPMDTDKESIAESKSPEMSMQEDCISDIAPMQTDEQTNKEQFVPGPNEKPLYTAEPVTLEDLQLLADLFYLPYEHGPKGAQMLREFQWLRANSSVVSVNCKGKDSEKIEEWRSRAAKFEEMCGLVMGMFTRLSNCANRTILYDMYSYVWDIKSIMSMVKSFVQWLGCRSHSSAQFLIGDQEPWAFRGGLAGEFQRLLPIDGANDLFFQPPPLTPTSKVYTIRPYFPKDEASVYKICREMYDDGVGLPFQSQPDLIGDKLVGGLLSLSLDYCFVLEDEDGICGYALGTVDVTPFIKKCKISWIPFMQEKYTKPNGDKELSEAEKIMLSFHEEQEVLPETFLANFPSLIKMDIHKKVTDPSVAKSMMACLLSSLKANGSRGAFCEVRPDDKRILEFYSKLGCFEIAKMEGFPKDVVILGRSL
The assay can be described thus: Determination of KI values for inhibition of O-GlcNAcase activity (fluorogenic 4-methylumbelliferyl GlcNAc substrate). The class given is biochemical. The settings on record: purified human O-GlcNAcase 0.7 nM, 2 mM substrate, pH 7.0, room temperature; Cheng-Prusoff; read-out: Ki. Here is the method:
Assay for Determination of […] for Inhibition of O-GlcNAcase Activity
Experimental procedure for kinetic analyses: Enzymatic reactions were carried out in a reaction containing 50 mM NaH2PO4, 100 mM NaCl and 0.1% BSA (pH 7.0) using 2 mM 4-Methylumbelliferyl N-acetyl-β-D-glucosaminide dihydrate (Sigma M2133) dissolved in ddH2O, as a substrate. The amount of purified human O-GlcNAcase enzyme used in the reaction was 0.7 nM. Test compound of varying concentrations was added to the enzyme prior to initiation of the reaction. The reaction was performed at room temperature in a 96-well plate and was initiated with the addition of substrate. […] The slope of product production was determined for each concentration of compound tested and plotted, using standard curve fitting algorithms for sigmoidal dose response curves. The values for a four parameter logistic curve fit of the data were determined.
On to `COc1ccc(CC[C@@H]([C@H]2O[C@@H]3SC(N(C)C)=N[C@@H]3[C@@H](O)[C@@H]2O)C(F)(F)F)cc1` (single isomer, unassigned) [Example 2], for which the Ki was found to be 1.6 nM.
To `COc1ccc(C/C=C(\[C@H]2O[C@@H]3SC(N(C)C)=N[C@@H]3[C@@H](O)[C@@H]2O)C(F)(F)F)cc1` (single isomer, unassigned) [Example 3] belongs 9.5 nM.
For `COc1ccc(C/C=C(/[C@H]2O[C@@H]3SC(N(C)C)=N[C@@H]3[C@@H](O)[C@@H]2O)C(F)(F)F)cc1` (single isomer, unassigned) [Example 4] the value was 16.2 nM; for `CNC1=N[C@@H]2[C@@H](O)[C@H](O)[C@@H]([C@H](O)CCc3ccc(OC)cc3)O[C@@H]2S1` (single isomer, unassigned) [Example 6], 139 nM.
For `CNC1=N[C@@H]2[C@@H](O)[C@H](O)[C@@H]([C@@H](O)CCc3ccc(OC)cc3)O[C@@H]2S1` (single isomer, unassigned) [Example 7] the value was 1.2 nM.
As for `CNC1=N[C@@H]2[C@@H](O)[C@H](O)[C@@H]([C@](O)(CCc3ccc(OC)cc3)C(F)(F)F)O[C@@H]2S1` (single isomer, unassigned) [Example 8], the Ki worked out at 0.95 nM.
For `CNC1=N[C@@H]2[C@@H](O)[C@H](O)[C@@H]([C@@](O)(CCc3ccc(OC)cc3)C(F)(F)F)O[C@@H]2S1` (single isomer, unassigned) [Example 9] the value was 24 nM; for `CN(C)C1=N[C@@H]2[C@@H](O)[C@H](O)[C@@H](C(O)(CCc3ccccc3)C(F)(F)F)O[C@@H]2S1` (stereo in doubt) [Example 27, (3aR,5S,6S,7R,7aR)-2-(dimethylamino)-5-((S)-1,1,1-trifluoro-2-hydroxy-4-phenylbutan-2-yl)-5,6,7,7a-tetrahydro-3aH-pyrano[3,2-d]thiazole-6,7-diol], 0.92 nM.
For `CN(C)C1=N[C@@H]2[C@@H](O)[C@H](O)[C@@H]([C@@](O)(CCc3ccccc3)C(F)(F)F)O[C@@H]2S1` (stereo in doubt) [Example 28, (3aR,5S,6S,7R,7aR)-2-(dimethylamino)-5-(1,1,1-trifluoro-2-hydroxy-4-phenylbutan-2-yl)-5,6,7,7a-tetrahydro-3aH-pyrano[3,2-d]thiazole-6,7-diol] the value was 316 nM.
To `COc1ccc(CCC(O)([C@H]2O[C@@H]3SC(N(C)C)=N[C@@H]3[C@@H](O)[C@@H]2O)C(F)(F)F)cc1` (stereo in doubt) [Example 29, (3aR,5S,6S,7R,7aR)-2-(dimethylamino)-5-((S)-1,1,1-trifluoro-2-hydroxy-4-(4-methoxyphenyl)butan-2-yl)-5,6,7,7a-tetrahydro-3aH-pyrano[3,2-d]thiazole-6,7-diol] belongs 1.1 nM; to `COc1ccc(CC[C@H]([C@H]2O[C@@H]3SC(N(C)C)=N[C@@H]3[C@@H](O)[C@@H]2O)C(F)(F)F)cc1` [Example 1, (3aR,5R,6S,7R,7aR)-2-(dimethylamino)-5-((R)-1,1,1-trifluoro-4-(4-methoxyphenyl)butan-2-yI)-5,6,7,7a-tetrahydro-3aH-pyrano[3,2-d]thiazole-6,7-diol], 109 nM; to `CCOC(=O)/C=C/[C@H]1O[C@@H]2SC(NC)=N[C@@H]2[C@@H](O)[C@@H]1O` [Example 5, (E)-ethyl 3-((3aR,5R,6S,7R,7aR)-6,7-dihydroxy-2-(methylamino)-5,6,7,7a-tetrahydro-3aH-pyrano[3,2-d]thiazol-5-yl)acrylate], 72 nM.
In the case of `CNC1=N[C@@H]2[C@@H](O)[C@H](O)[C@@H](C(F)(F)CCc3ccc(OC)cc3)O[C@@H]2S1` [Example 10, (3aR,5S,6S,7R,7aR)-5-(1,1-difluoro-3-(4-methoxyphenyl)propyl)-2-(methylamino)-5,6,7,7a-tetrahydro-3aH-pyrano[3,2-d]thiazole-6,7-diol], the Ki worked out at 69 nM.
For `CN(C)C1=N[C@@H]2[C@@H](O)[C@H](O)[C@@H](CC#N)O[C@@H]2S1` [Example 11, 2-((3aR,5R,6S,7R,7aR)-2-(dimethylamino)-6,7-dihydroxy-5,6,7,7a-tetrahydro-3aH-pyrano[3,2-d]thiazol-5-yl)acetonitrile] the value was 5.9 nM.
For `CNC1=N[C@@H]2[C@@H](O)[C@H](O)[C@@H](CCC(=O)OC)O[C@@H]2S1` [Example 12, methyl 3-((3aR,5R,6S,7R,7aR)-6,7-dihydroxy-2-(methylamino)-5,6,7,7a-tetrahydro-3aH-pyrano[3,2-d]thiazol-5-yl)propanoate] the value was 22 nM; for `CNC(=O)CC[C@H]1O[C@@H]2SC(N(C)C)=N[C@@H]2[C@@H](O)[C@@H]1O` [Example 13, 3-((3aR,5R,6S,7R,7aR)-2-(dimethylamino)-6,7-dihydroxy-5,6,7,7a-tetrahydro-3aH-pyrano[3,2-d]thiazol-5-yl)-N-methylpropanamide], 100 nM.
Consider `C=C(C)[C@H]1O[C@@H]2SC(NC)=N[C@@H]2[C@@H](O)[C@@H]1O` [Example 14, (3aR,5R,6S,7R,7aR)-2-(methylamino)-5-(prop-1-en-2-yl)-5,6,7,7a-tetrahydro-3aH-pyrano[3,2-d]thiazole-6,7-diol 2,2,2-trifluoroacetate], for which the Ki was 10.1 nM.
To `C=C([C@H]1O[C@@H]2SC(NC)=N[C@@H]2[C@@H](O)[C@@H]1O)C(F)(F)F` [Example 15, (3aR,5R,6S,7R,7aR)-2-(methylamino)-5-(3,3,3-trifluoroprop-1-en-2-yl)-5,6,7,7a-tetrahydro-3aH-pyrano[3,2-d]thiazole-6,7-diol] belongs 63 nM; to `C=C(C)[C@H]1O[C@@H]2SC(N(C)C)=N[C@@H]2[C@@H](O)[C@@H]1O` [Example 16, (3aR,5R,6S,7R,7aR)-2-(dimethylamino)-5-(prop-1-en-2-yl)-5,6,7,7a-tetrahydro-3aH-pyrano[3,2-d]thiazole-6,7-diol], 21 nM; to `CNC1=N[C@@H]2[C@@H](O)[C@H](O)[C@@H]([C@@H](CCc3ccc(OC)cc3)C(F)(F)F)O[C@@H]2S1` [Example 17, (3aR,5R,65,7R,7aR)-2-(methylamino)-5-((R)-1,1,1-trifluoro-4-(4-methoxyphenyl)butan-2-yl)-5,6,7,7a-tetrahydro-3aH-pyrano[3,2-d]thiazole-6,7-diol], 139 nM.
For `CNC1=N[C@@H]2[C@@H](O)[C@H](O)[C@@H]([C@H](CCc3ccc(OC)cc3)C(F)(F)F)O[C@@H]2S1` [Example 18, (3aR,5R,65,7R,7aR)-2-(methylamino)-5-(1,1,1-trifluoro-4-(4-methoxyphenyl)butan-2-yl)-5,6,7,7a-tetrahydro-3aH-pyrano[3,2-d]thiazole-6,7-diol] the value was 1.1 nM; for `CN(C)C1=N[C@@H]2[C@@H](O)[C@H](O)[C@@H](C(=CCc3ccccc3)C(F)(F)F)O[C@@H]2S1` [Example 19, (3aR,5R,6S,7R,7aR)-2-(dimethylamino)-5-(1,1,1-trifluoro-4-phenylbut-2-en-2-yl)-5,6,7,7a-tetrahydro-3aH-pyrano[3,2-d]thiazole-6,7-diol], 20 nM.
To `CN(C)C1=N[C@@H]2[C@@H](O)[C@H](O)[C@@H]([C@H](O)Cc3ccccc3)O[C@@H]2S1` [Example 20, (3aR,5R,6S,7R,7aR)-2-(dimethylamino)-5-((R)-1-hydroxy-2-phenylethyl)-5,6,7,7a-tetrahydro-3aH-pyrano[3,2-d]thiazole-6,7-diol] belongs 736 nM; to `CN(C)C1=N[C@@H]2[C@@H](O)[C@H](O)[C@@H]([C@@H](O)Cc3ccccc3)O[C@@H]2S1` [Example 21, (3aR,5R,6S,7R,7aR)-2-(dimethylamino)-5-((S)-1-hydroxy-2-phenylethyl)-5,6,7,7a-tetrahydro-3aH-pyrano[3,2-d]thiazole-6,7-diol], 25.6 nM.
As to `COc1ccc(CC[C@@H](O)[C@H]2O[C@@H]3SC(N(C)C)=N[C@@H]3[C@@H](O)[C@@H]2O)cc1` [Example 22, (3aR,5R,6S,7R,7aR)-2-(dimethylamino)-5-((R)-1-hydroxy-3-(4-methoxyphenyl)propyl)-5,6,7,7a-tetrahydro-3aH-pyrano[3,2-d]thiazole-6,7-diol], the Ki came out at 505 nM.
